Data taken from patent publication US11739305B2, “Sialyltransferase variants having neosialidase activity” (The Regents of the University of California, priority 2017, dated 2023).

Target: T1, Pd2,6ST S232L/T356S/W361F (Photobacterium damselae, UniProt O66375, S232L/T356S/W361F)
T1 construct: (Δ15Pd2, 6ST); His6 tag with thrombin site ([…]) (N); made in house; host or cells: E. coli BL21(DE3)
Assay: Linkage specificity assays (relative sialidase activity towards sialosides, HPLC)
Type: biochemical
Conditions: for Relative sialidase activity: of Pd2,6ST S232L/T356S/W361F towards the sialoside, 1 mM substrate, 0.5 mM CMP, pH 6.0, 37° C., 30 minutes, relative to compound 2
Description: Reactions were performed in duplicate at 37° C. for 30 minutes in MES buffer (100 mM, pH 6.0), MgCl2 (10 mM), CMP (0.5 mM), and 1 mM substrate. Enzyme concentrations were 0.030 μM for 2, 0.30 μM for 7, 3.0 μM 6, and 30.0 μM for 3-5. These conditions provided testing at initial rates (1.2-24% yield) for each substrate. Reactions were stopped by adding an equal volume of pre-chilled methanol. The mixtures were incubated on ice for 30 minutes and centrifuged at 13,000 rpm for 5 minutes. Supernatants were analyzed with an Infinity 1290-II HPLC equipped with a UV-Vis detector (Agilent Technologies, CA). The HPLC procedure utilized a ZORBAX Eclipse Plus C18 Rapid Resolution HD 1.8 μm particle 2.1×50 mm column (Agilent Technologies, CA), an isocratic flow of 1 mL min′ for a 9% acetonitrile and 91% aqueous solution containing 0.1% TFA, and an injection volume of 2 μL. The para-nitrophenyl absorbance signal was monitored at 315 nm.

[1] = cleavage by Pd2,6ST S232L/T356S/W361F

SMILES	activity lower than toward Neu5Acα2-6GalβpNP (2) [1] [fold]	Relative sialidase activity	neosialidase activity toward the sialoside, in words [1]	cleavage rate as percent of the rate of Neu5Acα2-6GalβpNP (2) [1]
CC(=O)N[C@H]1[C@H]([C@H](O)[C@H](O)CO)OC(O[C@H]2[C@@H](O)[C@@H](CO)O[C@@H](Oc3ccc([N+](=O)[O-])cc3)[C@@H]2O)(C(=O)O)C[C@@H]1O (stereo partly shown) [Compound 3, Neu5Acα2-3GalβpNP]	~400	2.5 × 10^−3	–	–
CC(=O)NC1C(O)CC(OC(CO)C(O)C2OC(OC3C(O)C(CO)OC(Oc4ccc([N+](=O)[O-])cc4)C3O)(C(=O)O)CC(O)C2NC(C)=O)(C(=O)O)OC1C(O)C(O)CO (stereo not shown) [Compound 4, Neu5Acα2-8Neu5Acα2-3GalβpNP]	–	3.3 × 10^−3	not detected	–
CC(=O)NC1C(Oc2ccc([N+](=O)[O-])cc2)OC(COC2(C(=O)O)CC(O)C(NC(C)=O)C(C(O)C(O)CO)O2)C(O)C1O (stereo not shown) [Compound 7, Neu5Acα2-6GalNAcβpNP]	–	1.9	higher	–
O=C(O)C1(OCC2OC(Oc3ccc([N+](=O)[O-])cc3)C(O)C(O)C2O)CC(O)C(O)C(C(O)C(O)CO)O1 (stereo not shown) [Compound 5, Kdnα2-6GalβpNP]	–	9.8 × 10^−4	not a suitable substrate	0.1%
CC(=O)N[C@H]1[C@H]([C@H](O)[C@H](O)CO)OC(OC[C@H]2O[C@@H](Oc3ccc([N+](=O)[O-])cc3)[C@H](O)[C@@H](O)[C@H]2O)(C(=O)O)C[C@@H]1O (stereo partly shown) [Compound 2, Neu5Acα2-6GalβpNP]	–	1.0	suitable substrate	–
O=C(CO)NC1C(O)CC(OCC2OC(Oc3ccc([N+](=O)[O-])cc3)C(O)C(O)C2O)(C(=O)O)OC1C(O)C(O)CO (stereo not shown) [Compound 6, Neu5Gcα2-6GalβpNP]	–	1.2 × 10^−1	–	approximately 12%
